The source of these data is US9884063B2, “Amido-substituted azole compounds” (Bayer Pharma Aktiengesellschaft, priority 2014, dated 2018).

The structures appear in SMILES notation. Bounds are passed on as bounds.

The target of assay [1] is T1, TNKS1 (Homo sapiens, UniProt O95271).
T1 sequence (O95271 1-1327): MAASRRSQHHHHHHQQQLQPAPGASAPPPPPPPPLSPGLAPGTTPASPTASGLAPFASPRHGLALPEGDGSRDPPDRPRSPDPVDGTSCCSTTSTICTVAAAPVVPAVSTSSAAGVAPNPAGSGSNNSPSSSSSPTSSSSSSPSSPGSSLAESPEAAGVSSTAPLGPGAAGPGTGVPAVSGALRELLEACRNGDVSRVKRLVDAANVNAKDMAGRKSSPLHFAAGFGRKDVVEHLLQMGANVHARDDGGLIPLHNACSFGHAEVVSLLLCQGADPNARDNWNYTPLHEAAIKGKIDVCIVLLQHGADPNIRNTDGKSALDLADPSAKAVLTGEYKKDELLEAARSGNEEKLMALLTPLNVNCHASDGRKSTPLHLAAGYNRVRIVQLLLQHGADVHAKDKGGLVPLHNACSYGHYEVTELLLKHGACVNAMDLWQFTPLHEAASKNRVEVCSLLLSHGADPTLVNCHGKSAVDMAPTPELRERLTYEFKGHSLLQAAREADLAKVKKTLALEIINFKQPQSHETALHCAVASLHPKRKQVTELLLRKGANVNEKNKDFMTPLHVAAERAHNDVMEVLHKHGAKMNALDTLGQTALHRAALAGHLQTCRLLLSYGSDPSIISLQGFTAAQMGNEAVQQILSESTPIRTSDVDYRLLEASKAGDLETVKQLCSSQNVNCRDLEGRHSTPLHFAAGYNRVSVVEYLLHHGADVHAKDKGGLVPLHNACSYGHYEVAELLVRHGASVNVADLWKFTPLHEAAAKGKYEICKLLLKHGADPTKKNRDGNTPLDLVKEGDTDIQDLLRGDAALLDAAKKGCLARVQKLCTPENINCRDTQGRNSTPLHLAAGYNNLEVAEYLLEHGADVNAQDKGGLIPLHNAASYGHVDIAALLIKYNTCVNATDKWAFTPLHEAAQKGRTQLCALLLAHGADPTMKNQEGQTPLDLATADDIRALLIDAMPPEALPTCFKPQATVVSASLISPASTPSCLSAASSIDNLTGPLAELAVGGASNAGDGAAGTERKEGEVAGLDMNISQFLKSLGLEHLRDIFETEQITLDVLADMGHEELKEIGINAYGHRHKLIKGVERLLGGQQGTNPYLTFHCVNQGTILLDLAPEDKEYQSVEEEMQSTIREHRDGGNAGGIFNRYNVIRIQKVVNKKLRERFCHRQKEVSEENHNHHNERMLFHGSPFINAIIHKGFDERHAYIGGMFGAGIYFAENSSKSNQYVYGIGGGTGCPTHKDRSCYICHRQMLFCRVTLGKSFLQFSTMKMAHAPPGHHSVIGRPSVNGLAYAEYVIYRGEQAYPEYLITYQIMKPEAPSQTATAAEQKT
The experiment in a line: Modified TNKS1 Assay 2 (auto-parsylation, [3H]-NAD+ SPA). In kind it is biochemical. The settings on record: 6 nM TNKS1, 96 well.

Assay [2] concerns wildtype Wnt signaling cascade. The experiment in a line: HEK293 TOP Assay (Super TopFlash luciferase reporter, Wnt-3a stimulated). In kind it is cell-based. The following applies: Homo sapiens, HEK293, 16 h, HEK293 TOP reporter cell line, Wnt-3a at EC50, 16 hours incubation, compound dilution series 50 μM to 15 nM. The procedure, abridged:
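Compounds (50 μM down to 15 nM, 3.16-fold steps, in CAFTY buffer pH 7.4, 2 mM Ca2+, 0.01% BSA) tested in parallel on TOP and FOP HEK293 reporter lines to define selective wildtype Wnt inhibition. Pathway driven by recombinant human Wnt-3a applied at 2500–5 ng/ml in two-fold dilutions.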
For orientation: In a reporter assay the amount or activity of a reporter protein is the signal.

Consider `CC(C)(CN1CCOCC1)NC(=O)c1[nH]cnc1C(=O)Nc1ccc(NC(=O)c2ccc(F)cc2Cl)cc1` [Example 207, N^4-{4-[(2-chloro-4-fluorobenzoyl)amino]phenyl}-N^5-[2-methyl-1-(morpholin-4-yl)propan-2-yl]-1H-imidazole-4,5-dicarboxamide], for which the IC50 in assay [1] came out at 110 nM; in assay [2], 710 nM.
The corresponding values for `CC1CCCN(CCNC(=O)c2[nH]cnc2C(=O)Nc2ccc(NC(=O)c3ccc(F)cc3Cl)cc2)C1` (stereo not shown) [Example 208, N^4-{4-[(2-chloro-4-fluorobenzoyl)amino]phenyl}-N^5-[2-(3-methylpiperidin-1-yl)ethyl]-1H-imidazole-4,5-dicarboxamide] are 3 nM and 30 nM.
`CC(C)(CNC(=O)c1[nH]cnc1C(=O)Nc1ccc(NC(=O)c2ccc(F)cc2)cc1)N1CCCCC1` [Example 209, N^4-{4-[(4-fluorobenzoyl)amino]phenyl}-N^5-[2-methyl-2-(piperidin-1-yl)propyl]-1H-imidazole-4,5-dicarboxamide]: the figures for the IC50 in assay [1] and in assay [2] were 400 nM and 850 nM, respectively.
As to `O=C(Nc1ccc(NC(=O)c2nc[nH]c2C(=O)NCCN2CCCCC2)cc1)c1ccc(F)cc1Br` [Example 216, N^4-{4-[(2-bromo-4-fluorobenzoyl)amino]phenyl}-N^5-[2-(piperidin-1-yl)ethyl]-1H-imidazole-4,5-dicarboxamide], the IC50 in assay [1] was 7 nM; in assay [2], 20 nM.
For `CN(C)CCNC(=O)c1[nH]cnc1C(=O)Nc1ccc(NC(=O)c2ccc(F)cc2Br)cc1` [Example 217, N^4-{4-[(2-bromo-4-fluorobenzoyl)amino]phenyl}-N^5-[2-(dimethylamino)ethyl]-1H-imidazole-4,5-dicarboxamide], the values for the concentration for half-maximal inhibition (IC50) in assay [1] and in assay [2] were 10 nM and 120 nM, respectively.
Take `O=C(Nc1ccc(NC(=O)c2ocnc2C(=O)NCCN2CCC(F)(F)CC2)cc1)c1ccc(F)cc1Cl` [Example 218, N^5-{4-[(2-chloro-4-fluorobenzoyl)amino]phenyl}-N^4-[2-(4,4-difluoropiperidin-1-yl)ethyl]-1,3-oxazole-4,5-dicarboxamide]: the 50% inhibitory concentration (IC50) is 70 nM in assay [1] and 1610 nM in assay [2].
Regarding `O=C(Nc1ccc(NC(=O)c2nc[nH]c2C(=O)NCCN2CCCC(F)C2)cc1)c1ccc(F)cc1Cl` (stereo not shown) [Example 226, N^4-{4-[(2-chloro-4-fluorobenzoyl)amino]phenyl}-N^5-[2-(3-fluoropiperidin-1-yl)ethyl]-1H-imidazole-4,5-dicarboxamide], the IC50 in assay [1] came to 4 nM; in assay [2], 50 nM.
As to `O=C(Nc1ccc(NC(=O)c2nc[nH]c2C(=O)NC2CCOC2)cc1)c1ccc(F)cc1Cl` (stereo not shown) [Example 236, N^4-{4-[(2-chloro-4-fluorobenzoyl)amino]phenyl}-N^5-(tetrahydrofuran-3-yl)-1H-imidazole-4,5-dicarboxamide], the IC50 in assay [1] amounted to 30 nM; in assay [2], 420 nM.
For the compound `CNC(=O)c1nc[nH]c1C(=O)Nc1ccc(NC(=O)c2ccccc2O)cc1` [Example 239, N^5-{4-[(2-hydroxybenzoyl)amino]phenyl}-N^4-methyl-1H-imidazole-4,5-dicarboxamide], the IC50 was more than 10000 nM in assay [1] and 46500 nM in assay [2].
In the same order, the values of `CNC(=O)c1nc[nH]c1C(=O)Nc1ccc(NC(=O)c2cc(OC)c(OC)cc2Cl)cc1` [Example 240, N^5-{4-[(2-chloro-4,5-dimethoxybenzoyl)amino]phenyl}-N^4-methyl-1H-imidazole-4,5-dicarboxamide] are 8 nM and 80 nM.
In the same order, the values of `CNC(=O)c1nc[nH]c1C(=O)Nc1ccc(NC(=O)c2ccccc2C(F)F)cc1` [Example 241, N^5-(4-{[2-(difluoromethyl)benzoyl]amino}phenyl)-N^4-methyl-1H-imidazole-4,5-dicarboxamide] are 2500 nM and 1900 nM.
For the compound `CNC(=O)c1nc[nH]c1C(=O)Nc1ccc(NC(=O)c2cc(F)c(F)cc2Cl)cc1` [Example 242, N^5-{4-[(2-chloro-4,5-difluorobenzoyl)amino]phenyl}-N^4-methyl-1H-imidazole-4,5-dicarboxamide], the IC50 in assay [1] was 20 nM; in assay [2], 80 nM.
The corresponding values for `CNC(=O)c1nc[nH]c1C(=O)Nc1ccc(NC(=O)c2ccccc2OC(F)(F)F)cc1` [Example 243, N^4-methyl-N^5-(4-{[2-(trifluoromethoxy)benzoyl]amino}phenyl)-1H-imidazole-4,5-dicarboxamide] are more than 10000 nM and 11500 nM.
The corresponding values for `CNC(=O)c1nc[nH]c1C(=O)Nc1ccc(NC(=O)c2ccc(C)cc2Cl)cc1` [Example 244, N^5-{4-[(2-chloro-4-methylbenzoyl)amino]phenyl}-N^4-methyl-1H-imidazole-4,5-dicarboxamide] are 40 nM and 170 nM.
In the same order, the values of `CNC(=O)c1nc[nH]c1C(=O)Nc1ccc(NC(=O)c2ncccc2Cl)cc1` [Example 247, N^5-(4-{[(3-chloropyridin-2-yl)carbonyl]amino}phenyl)-N^4-methyl-1H-imidazole-4,5-dicarboxamide] are 910 nM and 400 nM.
As for `CNC(=O)c1nc[nH]c1C(=O)Nc1ccc(NC(=O)c2cc(OC)ccc2Cl)cc1` [Example 248, N^5-{4-[(2-chloro-5-methoxybenzoyl)amino]phenyl}-N^4-methyl-1H-imidazole-4,5-dicarboxamide], the values for the IC50 in assay [1] and in assay [2] were 240 nM and 850 nM, respectively.
In the same order, the values of `CCOc1ccc(C(=O)Nc2ccc(NC(=O)c3[nH]cnc3C(=O)NC)cc2)c(Cl)c1` [Example 250, N^5-{4-[(2-chloro-4-ethoxybenzoyl)amino]phenyl}-N^4-methyl-1H-imidazole-4,5-dicarboxamide] are 230 nM and 920 nM.
In the case of `CNC(=O)c1nc[nH]c1C(=O)Nc1ccc(NC(=O)c2ccc(OC(F)F)cc2F)cc1` [Example 251, N^5-(4-{[4-(difluoromethoxy)-2-fluorobenzoyl]amino}phenyl)-N^4-methyl-1H-imidazole-4,5-dicarboxamide], the IC50 in assay [1] is more than 10000 nM; in assay [2], 7900 nM.
In the same order, the values of `CNC(=O)c1nc[nH]c1C(=O)Nc1ccc(NC(=O)c2cccc(OC)c2Cl)cc1` [Example 252, N^5-{4-[(2-chloro-3-methoxybenzoyl)amino]phenyl}-N^4-methyl-1H-imidazole-4,5-dicarboxamide] are 9300 nM and 4050 nM.
Consider `CNC(=O)c1nc[nH]c1C(=O)Nc1ccc(NC(=O)c2ccc(OC(F)(F)F)cc2F)cc1` [Example 253, N^5-(4-{[2-fluoro-4-(trifluoromethoxy)benzoyl]amino}phenyl)-N^4-methyl-1H-imidazole-4,5-dicarboxamide], for which the IC50 is more than 10000 nM in assay [1] and 12000 nM in assay [2].
In the same order, the values of `CNC(=O)c1nc[nH]c1C(=O)Nc1ccc(NC(=O)c2cnccc2Cl)cc1` [Example 254, N^5-(4-{[(4-chloropyridin-3-yl)carbonyl]amino}phenyl)-N^4-methyl-1H-imidazole-4,5-dicarboxamide] are 570 nM and 750 nM.
The corresponding values for `CCS(=N)(=O)c1ccc(C(=O)Nc2ccc(NC(=O)c3[nH]cnc3C(=O)NC)cc2)c(Cl)c1` (stereo not shown) [Example 255, N^5-(4-{[2-chloro-4-(S-ethylsulfonimidoyl)benzoyl]amino}phenyl)-N^4-methyl-1H-imidazole-4,5-dicarboxamide] are 680 nM and 1240 nM.
For the compound `CCS(=N)(=O)c1ccc(C(=O)Nc2ccc(NC(=O)c3[nH]cnc3C(=O)NCCN3CCCCC3)cc2)c(Cl)c1` (stereo not shown) [Example 256, N^5-(4-{[2-chloro-4-(S-ethylsulfonimidoyl)benzoyl]amino}phenyl)-N^4-[2-(piperidin-1-yl)ethyl]-1H-imidazole-4,5-dicarboxamide], the IC50 in assay [1] is 9 nM; in assay [2], 900 nM.

As usually defined, the IC50 is the midpoint of a concentration-inhibition curve. Low readings indicate higher potency, high ones lower potency.
